# Test results: US7829589B2, “Sulfonamide compounds and uses thereof” (Elixir Pharmaceuticals, Inc., priority 2005, dated 2010)
# Target: GHS-R (Homo sapiens, UniProt Q92847)
# Test: GHS-R antagonist activity (Ki) in a cell based assay
# Description: Cell-Based Activity Assays. For example, the ability of the compound to modulate accumulation of a second messenger signaling component downstream of GHS-R can be evaluated. For example, inositol phosphates (IP), as a result of Gq signaling in a mammalian cell, e.g., a Cos-7 cells. Other tissue culture cells, Xenopus oocytes, and primary cells can also be used.
# Phosphatidylinositol turnover assay. One day after transfection COS-7 cells are incubated for 24 hours with 5 μCi of [^3H]-myo-inositol in 1 ml medium supplemented with 10% fetal calf serum, 2 mM glutamine and 0.01 mg/ml gentamicin per well. Cells are then washed twice in buffer, 20 mM HEPES, pH 7.4, supplemented with 140 mM NaCl, 5 mM KCl, 1 mM MgSO4, 1 mM CaCl2, 10 mM glucose, 0.05% (w/v) bovine serum; and incubated in 0.5 ml buffer supplemented with 10 mM LiCl at 37° C. for 30 min. For some assays, it is also useful to incubate the cells with adenosine deaminase ADA (200 U/mg, Boehringer Mannheim, Germany) for 30 min in a concentration of 1 U/ml.
# After incubation with the compound of interest for 45 min at 37° C., cells are extracted with 10% ice-cold perchloric acid and placed on ice for 30 min. The resulting supernatants are neutralized with KOH in HEPES buffer, and [^3H]-inositol phosphate is purified on Bio-Rad AG 1-X8 anion exchange resin as described. Assays can be run in duplicate, triplicate, etc. […]
# Sequence of GHS-R (Q92847 whole entry, species assumed): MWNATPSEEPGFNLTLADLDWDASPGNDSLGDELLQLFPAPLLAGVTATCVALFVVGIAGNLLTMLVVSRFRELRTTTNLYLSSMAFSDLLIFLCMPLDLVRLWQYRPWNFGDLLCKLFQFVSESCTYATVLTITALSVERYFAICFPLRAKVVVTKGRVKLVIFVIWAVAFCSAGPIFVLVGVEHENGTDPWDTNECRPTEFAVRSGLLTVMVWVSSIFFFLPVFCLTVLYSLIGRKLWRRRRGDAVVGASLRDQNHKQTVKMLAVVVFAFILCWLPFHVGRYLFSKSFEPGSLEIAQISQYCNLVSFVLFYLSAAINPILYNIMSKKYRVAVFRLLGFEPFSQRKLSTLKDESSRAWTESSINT
row,SMILES,Ki [nM]
1,"CCN(CC)CCCS(=O)(=O)N[C@H](CCc1ccccc1)c1nc(Cc2ccc(F)cc2)n[nH]1 [Compound 5, 3-Diethylamino-propane-1-sulfonic acid {(R)-1-[5-(4-fluoro-benzyl)-2H-[1,2,4]triazol-3-yl]-3-phenyl-propyl}-amide]",< 100
2,"CCN(CC)CCCS(=O)(=O)N[C@H](CCc1ccccc1)c1nc(C2CNc3ccccc3O2)n[nH]1 (stereo partly drawn) [Compound 136, 3-Diethylamino-propane-1-sulfonic acid {(R)-1-[5-(3,4-dihydro-2H-benzo[1,4]oxazin-2-yl)-2H-[1,2,4]triazol-3-yl]-3-phenyl-propyl}-amide]",< 100
3,"CCN(CC)CCCS(=O)(=O)N[C@H](CCc1ccccc1)c1nc(-c2ccc(Cl)cc2)n[nH]1 [Compound 22, 3-Diethylamino-propane-1-sulfonic acid {(R)-1-[5-(4-chloro-phenyl)-2H-[1,2,4]triazol-3-yl]-3-phenyl-propyl}-amide]",< 100
4,"CCN(CC)CCCS(=O)(=O)N[C@H](CCc1ccccc1)c1nc(Cc2ccc(Cl)cc2)n[nH]1 [Compound 24, 3-Diethylamino-propane-1-sulfonic acid {(R)-1-[5-(4-chloro-benzyl)-2H-[1,2,4]triazol-3-yl]-3-phenyl-propyl}-amide]",< 100
5,"CCN(CC)CCCS(=O)(=O)NCc1nc(Cc2ccc(Cl)cc2)n[nH]1 [Compound 157, 3-Diethylamino-propane-1-sulfonic acid [5-(4-chloro-benzyl)-2H-[1,2,4]triazol-3-ylmethyl]-amide]",100 to 500
6,"CCN(CC)CCCS(=O)(=O)N[C@H](CCc1ccccc1)c1nc(-c2ncccc2C)no1 [Compound 9, 3-Diethylamino-propane-1-sulfonic acid {(R)-1-[3-(3-methyl-pyridin-2-yl)-[1,2,4]oxadiazol-5-yl]-3-phenyl-propyl}-amide]",100 to 500
7,"CCN(CC)CCCS(=O)(=O)N[C@H](CCc1ccccc1)c1nc(-c2csc(C)n2)n[nH]1 [Compound 137, 3-Diethylamino-propane-1-sulfonic acid {(R)-1-[5-(2-methyl-thiazol-4-yl)-2H-[1,2,4]triazol-3-yl]-3-phenyl-propyl}-amide]",< 100
8,"CCN(CC)CCCS(=O)(=O)N[C@H](CCc1ccccc1)c1nc(-c2cccc(C#N)c2)n[nH]1 [Compound 50, 3-Diethylamino-propane-1-sulfonic acid {(R)-1-[5-(3-cyano-phenyl)-2H-[1,2,4]triazol-3-yl]-3-phenyl-propyl}-amide]",< 100
9,"CCN(CC)CCCS(=O)(=O)N[C@H](CCc1ccccc1)c1nc(-c2ccc3[nH]ccc3c2)n[nH]1 [Compound 20, 3-Diethylamino-propane-1-sulfonic acid {(R)-1-[5-(1H-indol-5-yl)-2H-{1,2,4]triazol-3-yl]-3-phenyl-propyl}-amide]",< 100
10,"CCN(CC)CCS(=O)(=O)N[C@H](CCc1ccccc1)c1nc(Cc2ccccc2F)no1 [Compound 91, 2-Diethylamino-ethanesulfonic acid {(R)-1-[3-(2-fluoro-benzyl)-[1,2,4]oxadiazol-5-yl]-3-phenyl-propyl}-amide]",100 to 500
11,"CCN(CC)CCCS(=O)(=O)N[C@H](CCc1ccccc1)c1nc(-c2cccnc2)no1 [Compound 41, 3-Diethylamino-propane-1-sulfonic acid [(R)-3-phenyl-1-(3-pyridin-3-yl-[1,2,4]oxadiazol-5-yl)-propyl]-amide]",100 to 500
12,"CCN(CC)CCS(=O)(=O)N[C@H](CCc1ccccc1)c1nc(Cc2ccccc2Br)no1 [Compound 93, 2-Diethylamino-ethanesulfonic acid {(R)-1-[3-(2-bromo-benzyl)-[1,2,4]oxadiazol-5-yl]-3-phenyl-propyl}-amide]",< 100
13,"CCN(CC)CCCS(=O)(=O)N[C@H](CCc1ccccc1)c1nc(-c2ccccc2C)n[nH]1 [Compound 104, 3-Diethylamino-propane-1-sulfonic acid [(R)-3-phenyl-1-(5-o-tolyl-2H-[1,2,4]triazol-3-yl)-propyl]-amide]",< 100
14,"CCN(CC)C1CCC(S(=O)(=O)N[C@H](CCc2ccccc2)c2nnc(-c3ccc(F)cc3)[nH]2)CC1 (stereo partly drawn) [Compound 35, 4-Diethylamino-cyclohexanesulfonic acid {(R)-1-[5-(4-fluoro-phenyl)-4H-[1,2,4]triazol-3-yl]-3-phenyl-propyl}-amide]",100 to 500
15,"CCN(CC)CCCS(=O)(=O)N[C@@H](C)c1nc(Cc2ccc(Br)cc2)no1 [Compound 146, (S)-3-Diethylamino-propane-1-sulfonic acid {1-[3-(4-bromo-benzyl)-[1,2,4]oxadiazol-5-yl]-ethyl}-amide]",100 to 500
16,"CCN(CC)CCS(=O)(=O)N[C@H](CCc1ccccc1)c1nc(Cc2cccc(Br)c2)no1 [Compound 92, 2-Diethylamino-ethanesulfonic acid {(R)-1-[3-(3-bromo-benzyl)-[1,2,4]oxadiazol-5-yl]-3-phenyl-propyl}-amide]",< 100

# Next, values leading:
row,Ki [nM],SMILES
1,< 100,"CCN(CC)CCCS(=O)(=O)N[C@H](CCc1ccccc1)c1nc(-c2cccc(SC)c2)n[nH]1 [Compound 123, 3-Diethylamino-propane-1-sulfonic acid {(R)-1-[5-(3-methylsulfanyl-phenyl)-2H-[1,2,4]triazol-3-yl]-3-phenyl-propyl}-amide]"
2,< 100,"CCN(CC)CCCS(=O)(=O)N[C@H](CCc1ccccc1)c1nc(Cc2ccccc2OC)no1 [Compound 100, 3-Diethylamino-propane-1-sulfonic acid {(R)-1-[3-(2-methoxy-benzyl)-[1,2,4]oxadiazol-5-yl]-3-phenyl-propyl}-amide]"
3,100 to 500,"CCN(CC)CCCS(=O)(=O)N[C@H](CCc1ccccc1)c1nc(-c2cc(F)ccc2F)n[nH]1 [Compound 63, 3-Diethylamino-propane-1-sulfonic acid {(R)-1-[5-(2,5-difluoro-phenyl)-2H-[1,2,4]triazol-3-yl]-3-phenyl-propyl}-amide]"
4,< 100,"CCN(CC)CCCS(=O)(=O)N[C@H](CCc1ccccc1)c1nc(-c2ccc(O)cc2)n[nH]1 [Compound 120, 3-Diethylamino-propane-1-sulfonic acid {(R)-1-[5-(4-hydroxy-phenyl)-2H-[1,2,4]triazol-3-yl]-3-phenyl-propyl}-amide]"
5,< 100,"CCN(CC)CCCS(=O)(=O)N[C@H](CCc1ccccc1)c1nc(-c2ccccc2)n[nH]1 [Compound 23, 3-Diethylamino-propane-1-sulfonic acid [(R)-3-phenyl-1-(5-phenyl-2H-[1,2,4]triazol-3-yl)-propyl]-amide]"
6,< 100,"CCN(CC)CCCS(=O)(=O)N[C@H](CCc1ccccc1)c1nc(Cc2ccc3c(c2)OCO3)no1 [Compound 55, 3-Diethylamino-propane-1-sulfonic acid [(R)-1-(3-benzo[1,3]dioxol-5-ylmethyl-[1,2,4]oxadiazol-5-yl)-3-phenyl-propyl]-amide]"
7,100 to 500,"CCN(CC)CCCS(=O)(=O)N[C@H](CCC(N)=O)c1nc(Cc2ccc(Br)cc2)no1 [Compound 98, (R)-4-[3-(4-Bromo-benzyl)-[1,2,4]oxadiazol-5-yl]-4-(3-diethylamino-propane-1-sulfonylamino)-butyramide]"
8,100 to 500,"CCN(CC)CCCS(=O)(=O)N[C@H](CCc1ccccc1)c1nc(-c2ccccc2Cl)no1 [Compound 48, 3-Diethylamino-propane-1-sulfonic acid {(R)-1-[3-(2-chloro-phenyl)-[1,2,4]oxadiazol-5-yl]-3-phenyl-propyl}-amide]"
9,500 to 1000,"CCN(CC)CCS(=O)(=O)N[C@H](CCc1ccccc1)c1nc(-c2ccccc2C)no1 [Compound 13, 2-Diethylamino-ethanesulfonic acid [(R)-3-phenyl-1-(3-o-tolyl-[1,2,4]oxadiazol-5-yl)-propyl]-amide]"
10,< 100,"CCN(CC)CCCS(=O)(=O)N[C@H](CCc1ccccc1)c1nc(-c2ccc(F)cc2)no1 [Compound 66, 3-Diethylamino-propane-1-sulfonic acid {(R)-1-[3-(4-fluoro-phenyl)-[1,2,4]oxadiazol-5-yl]-3-phenyl-propyl}-amide]"
11,100 to 500,"CCN(CC)CCCS(=O)(=O)N[C@H](Cc1ccccc1)c1nc(-c2ccc(OC)cc2)n[nH]1 [Compound 119, 3-Diethylamino-propane-1-sulfonic acid {(R)-1-[5-(4-methoxy-phenyl)-2H-[1,2,4]triazol-3-yl]-2-phenyl-ethyl}-amide]"
12,< 100,"CCN(CC)CCCS(=O)(=O)N[C@H](CCc1ccccc1)c1nc(-c2ccc(C#N)cc2)n[nH]1 [Compound 40, 3-Diethylamino-propane-1-sulfonic acid {(R)-1-[5-(4-cyano-phenyl)-2H-[1,2,4]triazol-3-yl]-3-phenyl-propyl}-amide]"
13,500 to 1000,"CCN(CC)CCCS(=O)(=O)NCc1nc(-c2ccc(OC)cc2)no1 [Compound 148, 3-Diethylamino-propane-1-sulfonic acid [3-(4-methoxy-phenyl)-[1,2,4]oxadiazol-5-ylmethyl]-amide]"
14,< 100,"CCN(CC)CCCS(=O)(=O)N[C@@H](Cc1ccccc1)c1nc(-c2ccc(OC)cc2)n[nH]1 [Compound 95, 3-Diethylamino-propane-1-sulfonic acid {(S)-1-[5-(4-methoxy-phenyl)-2H-[1,2,4]triazol-3-yl]-2-phenyl-ethyl}-amide]"
